Patent publication US11241501B2, “Anticancer prodrug for overcoming drug resistance” (Korea University Research and Business Foundation, priority 2018, dated 2022)

What was measured:
[1] = system: MCF7/Dox xenograft tumors; assay: Independent comparative xenograft study of C1-C4; assay type: in vivo, mice; settings: n=5 per group, FIG. 23C
Excerpt: (§1) Tumors are shown (right). […] C1 injection led to a 58% reduction in tumor growth, which was statistically greater than the reductions seen in the case of C2 (16%), C3 (9%), C4 (6%) and DMSO (0%) tested under otherwise identical conditions.

carboxylesterase = assay: Carboxylesterase activation, fluorescence response and Dox release; assay type: biochemical
Description: The change in fluorescence intensity is directly related to active Dox release from C1.
FIG. 8 is a bar diagram representing the fluorescence intensity of C1 (5 μM) recorded at 570 nm after 4 h incubation in the presence or absence of carboxylesterase (1 U/ml), and various biological analytes, including amino acids (100 μM), thiols (10 mM, each), and reactive oxygen species (ROS) (200 μM, each) (Excitation at 470 nm). 1) C1 only, 2) L-proline, 3) L-ascorbic acid, 4) L-glutamic acid, 5) nicotinamide adenine dinucleotide (NADH), 6) pepsin, 7) acetylcholinesterase (AChE), 8) butyrylcholinesterase (BChE), 9) L-glutathione, 10) H2O2, 11) hypochlorite ion (OCl^−) 12) C1+esterase;
The maximal fluorescence intensity was recorded after 4 h. […] Note: The change in fluorescence intensity is considered to be proportional to the quantity of active Dox release from […]. […]
To gain further insight into the preliminary stability and activation of conjugates containing DCA, Dox, and a TPP cation targeting entity, both the target conjugate C1 and the control system C3 (an analog of C1 lacking the chloromethyl groups present in DCA; cf. FIG. 1) were prepared. […] Further support for the release of free Dox under these conditions came from time-dependent fluorescence experiments, HPLC, and liquid chromatography-mass spectrometry (FIG. 2B and FIG. 2C, and FIG. 7). […]

MCF7 cell line = assay: Cell viability, C1 versus Dox+DCA; assay type: cell-based, human
Description: (§2) Data represent the mean±SD. *p<0.05. […] Cells were seeded in 24 well plates at 2×10^5 cells per well and were allowed to adhere for at least 24 h, growth medium was replaced with medium containing C1 or its analogues at the indicated concentrations and times, and cell viability was assessed via the WST-1 assay (Roche Diagnostics, Laval, QC, Canada). For the colony formation assay, cells were seeded in 6-well plates. After 24 h, cells were maintained in the presence of each probe or vehicle dimethyl sulfoxide (DMSO) for 10 days. Colonies were fixed with methanol for 10 min and stained with 0.05% crystal violet in 20% ethanol.

MCF7/Dox cells [2] = assay: Cell viability, C1 versus Dox+DCA; assay type: cell-based, human; settings: resistant MCF7/Dox cells
Description: as §2

MCF7/Dox cells [3] = assay: Assessment of mitochondrial membrane potential (CLSM); assay type: cell-based, human; settings: 5 μM, 48 h
Description: To assess the mitochondrial membrane potential, MCF-7/Dox cells (5×10^3 cells) were seeded in glass-bottomed dishes and treated with 5 μM compound C1, C3, DCA, and/or doxorubicin for 48 h. After incubation, the cells were stained with 2 ml of a PBS solution containing 20 μM Mitoview™ 633 (Biotium, USA) and 100 nM Hoechst® 33342 (ThermoFisher, USA) for 30 min at 37° C. with 5% CO2. Fluorescence was detected using a Zeiss LSM 700 confocal laser scanning microscope (Carl Zeiss).

[4] = system: MCF7/Dox xenograft tumors; assay: Xenograft tumor study; assay type: in vivo; settings: mice, C1 15 mg/kg/d, Dox 2 mg/Kg/d + DCA 50 mg/Kg/d, once every four days
Description: (§3) Data represent the mean±SD. *p<0.05.
(§4) To assess tumor target specificity and the organ distribution of C1 in vivo and ex vivo, MCF7 and MCF7/Dox cells were injected subcutaneously into mice. When tumor growth reached a detectable size, the mice were treated with C1 (15 mg/kg/d), doxorubicin (2 mg/Kg/d)+DCA (50 mg/Kg/d), or vehicle (DMSO) by i.v. injection once every 4 days for 30 days. After 15 days of treatment, the animals were euthanized via CO2 asphyxiation. The xenograft tumors were excised and photographed. In vivo fluorescence images of the mice were recorded and quantified using a Maestro2 instrument (excitation and emission wavelengths: 500 and 650 nm, respectively). The fluorescence images and auto-fluorescence were then deconvoluted using the software provided with the instrument (Maestro software ver.2.4, CRi, Woburn, Mass., USA) using the multiexcitation spectral analysis function.
(§5) Five-week-old immunodeficient nude mice (nu/nu) mice (Orient Bio, Inc.) were maintained in pressurized ventilated cages under conditions of repeated controlled illumination (12 h dark; 12 h light) with ad libitum access to sterilized water and food (Cat no: 1314Fort, ALTROMIN company, Germany). MCF-7/Dox cells (1×10^7) in […] PBS were injected subcutaneously into each nude mouse. […] Tumor growth was monitored periodically, and the tumor volume (V) was calculated by using V=½× length×(width)^2. […]

MCF7 xenograft tumors = assay: Xenograft tumor study; assay type: in vivo; settings: mice, C1 15 mg/kg/d, Dox 2 mg/Kg/d + DCA 50 mg/Kg/d, once every four days
Description: as §3, §4, §5

[5] = Hepatotoxicity assay, serum ALT and AST; assay type: in vivo; settings: mice bearing MCF7/Dox tumors
Description: as §1
Blood samples of each mice were centrifuged at 3,000 rpm for 10 min at 4° C. to produce serum. Then, the activities of ALT and AST in serum were analyzed using the AST and ALT Activity Assay Kits (MAK055, MAK052, Sigma) according to the manufacturer's instructions.

[6] = Stability on incubation in PBS; assay type: physicochemical; settings: PBS pH 7.4, 37° C., 24 hr
Description: To gain further insight into the preliminary stability and activation of conjugates containing DCA, Dox, and a TPP cation targeting entity, both the target conjugate C1 and the control system C3 (an analog of C1 lacking the chloromethyl groups present in DCA; cf. FIG. 1) were prepared. These two conjugates were obtained in excellent yield, as shown in Scheme S1. […] This release was accompanied by a strong emission band at 560 nm corresponding to free Dox (FIG. 2A and FIG. 2B). Further support for the release of free Dox under these conditions came from time-dependent fluorescence experiments, HPLC, and liquid chromatography-mass spectrometry (FIG. 2B and FIG. 2C, and FIG. 7). […] To test the reaction of C1 with various other bioanalytes, the fluorescence response in the presence of various amino acids, enzymes, and biomolecules was recorded.

COc1cccc2c1C(=O)c1c(O)c3c(c(O)c1C2=O)C[C@@](O)(C(=O)CO)C[C@@H]3OC1C[C@H](NC(=O)OC(Cc2cn(CCCCCC[P+](c3ccccc3)(c3ccccc3)c3ccccc3)nn2)c2ccc(NC(=O)C(Cl)Cl)cc2)[C@H](O)[C@H](C)O1.[Br-] (stereo partly shown) [C1]
reduction in tumor growth [1]: 58%
fluorescence response to various amino acids, enzymes and biomolecules versus esterase (carboxylesterase; 590 nm emission, 4 h incubation): large fluorescence enhancements in the 590 nm emission feature were observed upon treatment with the esterase but not in its absence
response to carboxylesterase (bond scission, Dox release) (carboxylesterase; carboxylesterase 1 U/mL, PBS, 37° C.): scission of the aniline-amide bond and release of Dox
reduction in cell viability (MCF7 cell line): comparable reduction in cell viability
cytotoxic effect (MCF7/Dox cells [2]): appreciable cytotoxic effect
decrease in mitochondrial membrane potential Δψm (MCF7/Dox cells [3]): ca. 96%
reduction in the tumor volume [4]: ~74%
reduction in the tumor volume (MCF7 xenograft tumors): approximately 78%
toxicity from ALT and AST levels in blood serum [5]: no significant toxicity
decomposition upon incubation in PBS [6]: no decomposition was observed
